Data as given in patent US7811599B2, “Pharmaceutical combinations comprising a fungicide, a bacteriostatic sulphonamide and an antibacterial compound for topical application” (priority 2001, dated 2010).
In brackets after ≈: the same amount, converted by molar mass.

What was measured:
Format in all cases: cell-based
Escherichia coli = assay: MIC values of active ingredients (in nutrient liquid); conditions: Table I
Experimental: (§1) The experiments are carried out in an ambience free of germs. […] The following compounds were tested: azithromycin, clarithromycin, erythromycin, miconazole, […]-sulphate. Test organisms: Bacteria: Escherichia coli, Pseudomonas aeruginosa, Serratia marcescens, Staphylococcus aureus, Streprococcus pyogenes. Fungi: Aspergillus flavus, Fusarium oxysporum, Candida albicans, Candida parapsilosus. Nutrient media: Soye bouillon, Sabouraud nutrient liquor. Solvents: methanol a.r. and for […]-sulphate the mixture of butanol:ethanol:water in the ratio of 1:1:2. Negative control: nutrient medium exempt of test organisms. Positive control: nutrient medium and 10 μL of the inoculum. Following preparation of the inoculum and incubation the MIC values were determined according to the above.

Pseudomonas aeruginosa = assay: as above; conditions: Table I
Experimental: as §1

Serratia marcescens = assay: as above; conditions: Table I
Experimental: as §1

Staphylococcus aureus = assay: as above; conditions: Table I
Experimental: as §1

Streptococcus pyogenes = assay: as above; conditions: Table I
Experimental: as §1

Aspergillus flavus = assay: as above; conditions: Table I
Experimental: as §1, with “For fungi: Sabouraud nutrient liquid containing glucose, […] digested casein and water. The experiments” for “The experiments”

Candida albicans = assay: as above; conditions: Table I
Experimental: as §1, with “For fungi: Sabouraud nutrient liquid containing glucose, […] digested casein and water. The experiments” for “The experiments”

Candida parapsilosis = assay: as above; conditions: Table I; for MIC: Lodderomyces parapsilosis
Experimental: as §1, with “For fungi: Sabouraud nutrient liquid containing glucose, […] digested casein and water. The experiments” for “The experiments”

Fusarium oxysporum = assay: as above; conditions: Table I
Experimental: as §1, with “For fungi: Sabouraud nutrient liquid containing glucose, […] digested casein and water. The experiments” for “The experiments”

[1] = system: all tested bacteria and fungi; assay: MIC values of active ingredients on 9 different microbe strains, summary in words; conditions: summary of Table I
Experimental: For fungi: Sabouraud nutrient liquid containing glucose, tripsine digested casein and water.
The experiments are carried out in an ambience free of germs.
The following compounds were tested: azithromycin, clarithromycin, erythromycin, miconazole, primicin-sulphate. Test organisms: Bacteria: Escherichia coli, Pseudomonas aeruginosa, Serratia marcescens, Staphylococcus aureus, Streprococcus pyogenes. Fungi: Aspergillus flavus, Fusarium oxysporum, Candida albicans, Candida parapsilosus. Nutrient media: Soye bouillon, Sabouraud nutrient liquor. Solvents: methanol a.r. and for primicin-sulphate the mixture of butanol:ethanol:water in the ratio of 1:1:2. Negative control: nutrient medium exempt of test organisms. Positive control: nutrient medium and 10 μL of the inoculum.
Following preparation of the inoculum and incubation the MIC values were determined according to the above.

Compound	MIC values (Escherichia coli)	MIC values (Pseudomonas aeruginosa)	MIC values (Serratia marcescens)	MIC values (Staphylococcus aureus)	MIC values (Streptococcus pyogenes)	MIC values (Aspergillus flavus)	MIC values (Candida albicans)	MIC values (Candida parapsilosis)	MIC values (Fusarium oxysporum)	activity in the MIC test, in words [1]	MIC (Escherichia coli)	MIC (Pseudomonas aeruginosa)	MIC (Serratia marcescens)	MIC (Staphylococcus aureus)	MIC (Streptococcus pyogenes)	MIC (Aspergillus flavus)	MIC (Candida albicans)	MIC (Candida parapsilosis)	MIC (Fusarium oxysporum)
primycin	100< μg/ml	100< μg/ml	100< μg/ml	0.2 µg/mL	0.5 µg/mL	100< μg/ml	18 µg/mL	5.0 µg/mL	100< μg/ml	acceptably active against Candida type fungi but not against all tested bacteria	–	–	–	–	–	–	–	–	–
Clc1ccc(COC(Cn2ccnc2)c2ccc(Cl)cc2Cl)c(Cl)c1 (stereo not drawn) [miconazole]	–	–	–	–	–	–	–	–	–	inhibits all tested fungi and cocci	> 500 µg/mL	> 500 µg/mL	> 500 µg/mL	3 µg/mL (≈ 7.21 µM)	0.5 µg/mL (≈ 1.2 µM)	2 µg/mL (≈ 4.81 µM)	0.5 µg/mL (≈ 1.2 µM)	0.2 µg/mL (≈ 0.481 µM)	> 8 µg/mL
CC[C@H]1OC(=O)[C@H](C)[C@@H](O[C@H]2C[C@@](C)(OC)[C@@H](O)[C@H](C)O2)[C@H](C)[C@@H](O[C@@H]2O[C@H](C)C[C@H](N(C)C)[C@H]2O)[C@](C)(O)C[C@@H](C)CN(C)[C@H](C)[C@@H](O)[C@]1(C)O [azithromycin]	–	–	–	–	–	–	–	–	–	effective on all tested bacteria	6 µg/mL (≈ 8.01 µM)	65 µg/mL (≈ 86.8 µM)	8 µg/mL (≈ 10.7 µM)	2 µg/mL (≈ 2.67 µM)	3 µg/mL (≈ 4.01 µM)	> 500 µg/mL	> 500 µg/mL	500 µg/mL (≈ 668 µM)	> 500 µg/mL
CC[C@H]1OC(=O)[C@H](C)[C@@H](O[C@H]2C[C@@](C)(OC)[C@@H](O)[C@H](C)O2)[C@H](C)[C@@H](O[C@@H]2O[C@H](C)C[C@H](N(C)C)[C@H]2O)[C@](C)(O)C[C@@H](C)C(=O)[C@H](C)[C@@H](O)[C@]1(C)O [erythromycin]	–	–	–	–	–	–	–	–	–	–	100 µg/mL (≈ 136 µM)	90 µg/mL (≈ 123 µM)	300 µg/mL (≈ 409 µM)	1 µg/mL (≈ 1.36 µM)	3 µg/mL (≈ 4.09 µM)	> 500 µg/mL	> 500 µg/mL	500 µg/mL (≈ 681 µM)	> 500 µg/mL
CC[C@H]1OC(=O)[C@H](C)[C@@H](O[C@H]2C[C@@](C)(OC)[C@@H](O)[C@H](C)O2)[C@H](C)[C@@H](O[C@@H]2O[C@H](C)C[C@H](N(C)C)[C@H]2O)[C@](C)(OC)C[C@@H](C)C(=O)[C@H](C)[C@@H](O)[C@]1(C)O [clarithromycin]	–	–	–	–	–	–	–	–	–	–	95 µg/mL (≈ 127 µM)	80 µg/mL (≈ 107 µM)	100 µg/mL (≈ 134 µM)	0.2 µg/mL (≈ 0.267 µM)	1 µg/mL (≈ 1.34 µM)	> 100 µg/mL	> 100 µg/mL	> 100 µg/mL	> 100 µg/mL
